Earlier results in patent US7160555B2, “Immediate release medicinal compositions for oral use” (Kissei Pharmaceutical Co., Ltd., priority 1999, dated 2007).

Tested on: blood sugar
Details: Japanese Patent Laid-Open No. 356459/1992

Substance: (2S)-2-benzyl-3-(cis-hexahydro-2-iso-indolinylcarbonyl)propionic acid
- lowering action of blood sugar: remarkable lowering action of blood sugar
